Paper PMC11602115 (Journal of Medicinal Chemistry, 2017)
Where two headings read alike, the source gives them in different places.

Columns and labels:
Rat PK (iv and oral) = type: in vivo; details: for AUC(0-inf) / bioavailability: Sprague-Dawley; for AUC(0-inf): after oral administration 10 mg/kg (5m 10.5); for bioavailability: po, 10 mg/kg; for unbound Cmax plasma concentration: single oral dose 30 mg/kg, based on 1% free fraction of the measured Cmax
[1] = tested on: primary human pulmonary arterial smooth muscle cells; experiment: HTRF cAMP assay in primary human pulmonary arterial smooth muscle cells; type: cell-based
Protocol: Additional In Vitro Assays […]
Compounds were also evaluated in HTRF cAMP assays using primary human pulmonary arterial smooth muscle cells (Cell Applications, Inc., #352Kq05a, or ThermoFisher/Gibco, #C0095C) using the same basic assay protocol outlined in the Experimental section. Cells were cultured as recommended by the suppliers, used at low passage and seeded into 384qwell assay plates at a density of 700q900 cell per well

Plasma protein binding = type: in vitro ADME; details: across all species
MCT-induced PAH = experiment: Rat monocrotaline (MCT) model of PAH, preventative oral dosing; type: in vivo, male Sprague-Dawley rats; details: for inhibition of the MCT-induced increase in RV/(LV + S): oral, twice daily for 21 days, preventative mode
Protocol: Following anesthesia by intraperitoneal injection of 30 mg/kg pentobarbital, rats were given a subcutaneous injection of either 60 mg/kg MCT (Sigma, catalog no. C2401-1G) or 0.9% saline for the sham group. […] Hemodynamic measurements were performed with animals from the 30 mg/kg group (but not the 10 mg/kg group) anesthetized with 60 mg/kg pentobarbital. Under anesthesia, each animal was intubated with a rodent ventilator (Harvard Apparatus, model 683) at 70 breaths/min of a rate and a tidal volume of 2.5 mL in supine position on a heating pad set at 37 °C. A small opening in the apex of the right ventricle was made using a 23G needle, then a Millar catheter (Millar Instruments, Inc. model SPR-320) was placed into the right ventricle through the opening in the apex, then into the pulmonary artery (PA) for the pressure measurement. A second catheter was inserted through the […] for the measurement of mean arterial pressure. After stabilization, heart rate, mean arterial pressure, and systolic RV pressure were calculated from 20 consecutive heart beats in each rat.
The ventricles and lungs were excised and weighed. The ratio of RV weight to left ventricle plus septum (LV + S) was calculated as an index of right ventricular hypertrophy.
As the collection and preservation of the tissues are very resource intensive, 5 animals were selected from each group for measurement of vessel thickness; this was sufficient to obtain clear statistical differences between groups. Paraffin sections of 4 μm thickness were obtained from the lower region of the right lung and stained with hematoxylin/eosin. Analysis of the medial wall thickness of the pulmonary arterioles was performed. In brief, the external diameter and medial wall thickness were measured in 20 muscular arteries (25–100 μm external diameters) per lung section. For each artery, the medial wall thickness was expressed as follows: % wall thickness = [(external diameter – internal diameter)/external diameter] × 100. Each vessel was measured twice, perpendicularly along the long axis and short axis, and averages of both measurements were used.

DP1 = DP1 (Homo sapiens, UniProt Q13258); experiment: Radioligand binding, DP1 ([3H]-PGD2); details: cloned human receptor; mean of two determinations
Chain of DP1 (Q13258 whole entry): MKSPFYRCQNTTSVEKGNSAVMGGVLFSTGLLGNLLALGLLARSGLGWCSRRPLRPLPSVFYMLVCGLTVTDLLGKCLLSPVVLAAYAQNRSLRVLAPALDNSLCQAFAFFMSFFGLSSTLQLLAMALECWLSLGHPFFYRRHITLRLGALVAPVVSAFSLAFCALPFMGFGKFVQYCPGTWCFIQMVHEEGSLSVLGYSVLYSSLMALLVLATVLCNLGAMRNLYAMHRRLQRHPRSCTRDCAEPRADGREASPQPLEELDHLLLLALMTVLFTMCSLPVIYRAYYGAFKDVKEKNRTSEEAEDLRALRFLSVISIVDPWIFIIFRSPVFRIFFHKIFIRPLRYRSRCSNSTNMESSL
Protocol: (§1) Additional (non-IP) receptor binding assays were carried out by MDS Pharma (Taiwan) and CEREP (France).

CYP 2D6 = CYP 2D6 (Homo sapiens, UniProt P10635); experiment: Cytochrome P450 inhibition, CYP2D6; type: in vitro ADME
Chain of CYP 2D6 (P10635 whole entry): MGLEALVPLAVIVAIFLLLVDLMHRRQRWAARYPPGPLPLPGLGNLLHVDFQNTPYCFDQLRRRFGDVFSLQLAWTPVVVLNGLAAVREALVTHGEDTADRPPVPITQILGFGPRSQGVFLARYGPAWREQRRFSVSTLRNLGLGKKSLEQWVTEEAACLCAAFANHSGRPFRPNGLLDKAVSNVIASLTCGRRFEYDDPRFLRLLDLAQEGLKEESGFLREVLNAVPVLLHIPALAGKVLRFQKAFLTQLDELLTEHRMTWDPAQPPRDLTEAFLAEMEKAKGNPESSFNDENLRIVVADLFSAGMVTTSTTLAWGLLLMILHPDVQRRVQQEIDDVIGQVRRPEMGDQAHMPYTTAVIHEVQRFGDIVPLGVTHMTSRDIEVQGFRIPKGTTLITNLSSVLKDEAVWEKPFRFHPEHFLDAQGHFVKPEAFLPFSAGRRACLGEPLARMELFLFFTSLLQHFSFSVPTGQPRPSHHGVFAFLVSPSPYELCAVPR

CYP 2C19 = CYP 2C19 (Homo sapiens, UniProt P33261); experiment: Cytochrome P450 inhibition, CYP2C19; type: in vitro ADME
Chain of CYP 2C19 (P33261 whole entry): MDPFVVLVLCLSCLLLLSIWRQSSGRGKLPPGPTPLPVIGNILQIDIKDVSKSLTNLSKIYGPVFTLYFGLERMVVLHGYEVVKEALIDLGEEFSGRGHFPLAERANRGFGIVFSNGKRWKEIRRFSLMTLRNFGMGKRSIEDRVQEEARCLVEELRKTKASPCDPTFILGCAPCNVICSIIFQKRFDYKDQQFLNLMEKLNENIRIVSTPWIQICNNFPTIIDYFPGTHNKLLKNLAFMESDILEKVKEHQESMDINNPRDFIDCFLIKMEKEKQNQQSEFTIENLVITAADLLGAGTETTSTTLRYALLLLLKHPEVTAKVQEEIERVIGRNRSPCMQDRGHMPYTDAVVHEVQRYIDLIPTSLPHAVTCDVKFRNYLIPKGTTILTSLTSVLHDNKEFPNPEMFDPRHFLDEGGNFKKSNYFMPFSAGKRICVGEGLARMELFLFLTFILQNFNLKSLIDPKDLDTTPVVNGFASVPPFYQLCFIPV

CYP 2C9 = CYP 2C9 (Homo sapiens, UniProt P11712); experiment: Cytochrome P450 inhibition, CYP2C9; type: in vitro ADME
Chain of CYP 2C9 (P11712 whole entry): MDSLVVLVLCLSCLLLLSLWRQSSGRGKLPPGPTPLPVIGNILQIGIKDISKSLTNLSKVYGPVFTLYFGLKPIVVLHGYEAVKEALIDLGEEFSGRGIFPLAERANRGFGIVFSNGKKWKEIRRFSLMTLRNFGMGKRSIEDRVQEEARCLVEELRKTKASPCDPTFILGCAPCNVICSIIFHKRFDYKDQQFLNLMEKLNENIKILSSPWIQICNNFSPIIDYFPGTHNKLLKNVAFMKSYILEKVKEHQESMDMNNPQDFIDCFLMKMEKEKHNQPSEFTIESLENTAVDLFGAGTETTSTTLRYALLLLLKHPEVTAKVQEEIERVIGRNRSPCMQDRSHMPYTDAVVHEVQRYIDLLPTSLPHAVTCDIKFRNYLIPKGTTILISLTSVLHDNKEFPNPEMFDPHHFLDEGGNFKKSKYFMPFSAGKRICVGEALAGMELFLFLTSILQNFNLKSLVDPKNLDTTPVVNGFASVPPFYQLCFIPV

EP1 = target: T1, EP1 (Homo sapiens, UniProt P34995); experiment: cAMP HTRF agonist assay, EP1; type: cell-based
T1 sequence (P34995 1-402): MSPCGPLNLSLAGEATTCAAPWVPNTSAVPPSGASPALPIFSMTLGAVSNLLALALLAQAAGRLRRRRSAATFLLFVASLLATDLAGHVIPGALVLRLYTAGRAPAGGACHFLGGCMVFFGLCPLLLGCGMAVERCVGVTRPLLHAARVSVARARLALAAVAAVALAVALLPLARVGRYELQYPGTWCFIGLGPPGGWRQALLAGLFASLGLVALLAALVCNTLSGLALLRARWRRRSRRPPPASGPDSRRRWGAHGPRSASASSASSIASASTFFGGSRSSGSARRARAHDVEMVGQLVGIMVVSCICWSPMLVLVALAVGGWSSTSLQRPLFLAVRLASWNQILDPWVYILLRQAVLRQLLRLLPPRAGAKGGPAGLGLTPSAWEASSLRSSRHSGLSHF
Description: Table Sup2: Data with some comparator compounds in functional assays.
Compound DP1 EP1 EP2 EP3v6 EP4
EC50, µµµµM (% I.A) EC50, µµµµM (% I.A) EC50, µµµµM (% I.A) EC50, µµµµM (% I.A) EC50, µµµµM (% I.A)
n = 3 n = 2 n = 8 n = 6 n = 6 […]

CYP 3A4 = CYP 3A4 (Homo sapiens, UniProt P08684); experiment: Cytochrome P450 inhibition, CYP3A4; type: in vitro ADME
Chain of CYP 3A4 (P08684 whole entry): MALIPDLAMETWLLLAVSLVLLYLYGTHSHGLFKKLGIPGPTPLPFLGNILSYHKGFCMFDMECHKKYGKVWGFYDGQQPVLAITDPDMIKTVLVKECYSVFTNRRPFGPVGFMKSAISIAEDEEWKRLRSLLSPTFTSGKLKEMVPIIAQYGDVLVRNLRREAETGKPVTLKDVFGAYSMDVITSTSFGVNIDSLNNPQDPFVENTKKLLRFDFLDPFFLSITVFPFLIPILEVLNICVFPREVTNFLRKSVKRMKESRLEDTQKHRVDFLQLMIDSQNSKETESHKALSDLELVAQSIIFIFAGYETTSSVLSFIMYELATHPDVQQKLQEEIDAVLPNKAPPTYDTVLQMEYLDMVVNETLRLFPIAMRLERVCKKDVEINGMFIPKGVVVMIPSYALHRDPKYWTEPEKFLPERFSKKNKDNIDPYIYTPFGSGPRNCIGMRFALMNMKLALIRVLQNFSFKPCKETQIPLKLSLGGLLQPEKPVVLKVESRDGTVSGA

EP2 = EP2 (Homo sapiens, UniProt P43116); experiment: Radioligand binding, EP2 ([3H]-PGE2); parameters: purchased MDS Pharma (Taiwan) and CEREP (France), contract assays; details: cloned human receptor; mean of two determinations
Chain of EP2 (P43116 whole entry): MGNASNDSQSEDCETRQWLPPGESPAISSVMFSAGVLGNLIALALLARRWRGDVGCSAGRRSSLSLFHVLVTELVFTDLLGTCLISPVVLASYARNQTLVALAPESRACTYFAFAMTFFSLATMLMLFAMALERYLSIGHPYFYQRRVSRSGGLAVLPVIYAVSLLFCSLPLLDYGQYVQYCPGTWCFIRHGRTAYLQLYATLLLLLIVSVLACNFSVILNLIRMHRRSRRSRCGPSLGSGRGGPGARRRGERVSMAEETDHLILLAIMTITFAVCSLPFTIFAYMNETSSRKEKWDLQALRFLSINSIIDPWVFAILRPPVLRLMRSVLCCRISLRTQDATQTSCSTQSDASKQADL
Protocol: as §1

Mouse PK (iv and oral) = type: in vivo, male CD-1 mice
CYP 1A2 = CYP 1A2 (Homo sapiens, UniProt P05177); experiment: Cytochrome P450 inhibition, CYP1A2; type: in vitro ADME
Chain of CYP 1A2 (P05177 whole entry): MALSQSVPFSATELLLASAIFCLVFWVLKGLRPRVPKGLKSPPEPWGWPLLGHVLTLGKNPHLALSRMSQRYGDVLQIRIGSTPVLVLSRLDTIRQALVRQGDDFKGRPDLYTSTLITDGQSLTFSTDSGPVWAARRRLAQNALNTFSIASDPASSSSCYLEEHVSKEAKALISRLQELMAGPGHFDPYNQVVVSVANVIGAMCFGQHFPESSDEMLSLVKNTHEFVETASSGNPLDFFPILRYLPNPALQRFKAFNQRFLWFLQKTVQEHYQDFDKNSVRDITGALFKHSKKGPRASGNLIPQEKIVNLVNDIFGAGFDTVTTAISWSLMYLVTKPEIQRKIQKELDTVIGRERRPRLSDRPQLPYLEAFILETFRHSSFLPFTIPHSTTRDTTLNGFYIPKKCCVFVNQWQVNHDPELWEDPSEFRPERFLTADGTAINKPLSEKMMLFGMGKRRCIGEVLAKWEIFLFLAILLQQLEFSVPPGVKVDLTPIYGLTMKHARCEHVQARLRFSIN

[2] = terminal half-life after iv 2 mg/kg (5m 2.1)
[3] = total clearance, iv 2 mg/kg (5m 2.1)
[4] = read-out: plasma protein binding

Structure (SMILES): O=C(O)COC[C@H]1CC[C@H](COC(=O)N(c2ccccc2)c2ccc(Cl)cc2)CC1 [5c, Sodium 2-(((1r,4r)-4-(((4-Chlorophenyl)(phenyl)carbamoyloxy)methyl)cyclohexyl)methoxy)acetate]
- half-life (Rat PK (iv and oral); CD-1 (mouse), Sprague-Dawley (rat), plasma, oral, rodents, read-out: elimination half-life in rodents): 5 to 8 h
- AUC(0-inf) (Rat PK (iv and oral); plasma): 14600 ng·h/mL
- bioavailability (Rat PK (iv and oral); plasma): 57%
- AUC0–inf (Rat PK (iv and oral); iv 2 mg/kg (Table 4)): 5090 ± 1620 ng·h/mL
- Clobs (Rat PK (iv and oral); iv 2 mg/kg (Table 4)): 0.427 ± 0.163 L h^–1 kg^–1
- T1/2 (Rat PK (iv and oral); iv 2 mg/kg (Table 4)): 6.72 ± 0.98 h
- unbound Cmax (Rat PK (iv and oral); oral 10 mg/kg, calculated from the PK experiment): around 100 nM
- Cmax (Rat PK (iv and oral); po 10 mg/kg (5m 10.5)): 3700 ng/mL
- Tmax (Rat PK (iv and oral); po 10 mg/kg (5m 10.5)): 1.5 h
- Cmax (Rat PK (iv and oral); po 10.0 mg/kg (Table 4)): 3700 ± 1340 ng/mL
- F (Rat PK (iv and oral); po 10.0 mg/kg (Table 4)): 57.4%
- T1/2 (Rat PK (iv and oral); po 10.0 mg/kg (Table 4)): 5.45 ± 1.52 h
- unbound Cmax plasma concentration (Rat PK (iv and oral)): 300 nM
- T1/2 (Rat PK (iv and oral); [2]): 6.7 h
- Clobs (Rat PK (iv and oral); [3]): 0.43 L h^–1 kg^–1
- Efficacy (% vs. Iloprost) [95% CI], primary human PASMC cAMP [1]: 65 [55, 75] %
- fraction unbound (Plasma protein binding; read-out: free fraction): 0.01
- fraction unbound (Plasma protein binding; [4]): ~0.01
- effect on hypertrophy (RV/(LV + S)) (MCT-induced PAH; 10 mg/kg oral twice daily): did not show a statistically significant effect
- pulmonary vessel wall thickness (MCT-induced PAH; 30 mg/kg oral twice daily, 5 animals): significantly reduce
- MCT-induced increase in pulmonary arterial pressure (mPAP) (MCT-induced PAH; 30 mg/kg oral twice daily, subset of the test group (5 animals)): significantly reduce
- inhibition of the MCT-induced increase in RV/(LV + S) (MCT-induced PAH): dose-dependent inhibition
- Ki (DP1): 2600 nM
- IC50 (CYP 2D6): > 50000 nM
- IC50 (CYP 2C19): > 50000 nM
- IC50 (CYP 2C9): > 50000 nM
- EC50 (EP1): > 10000 nM
- IC50 (CYP 3A4): > 50000 nM
- Ki (EP2): 610 nM
- T1/2 (Mouse PK (iv and oral); iv […]): 5.59 h
- AUC0–inf (Mouse PK (iv and oral); po 9.49 mg/kg): 11500 ng·h/mL
- Cmax (Mouse PK (iv and oral); po 9.49 mg/kg): 4940 ng/mL
- F (Mouse PK (iv and oral); po 9.49 mg/kg): 83.4%
- T1/2 (Mouse PK (iv and oral); po 9.49 mg/kg): 8.08 h
- Tmax (Mouse PK (iv and oral); po 9.49 mg/kg): 0.250 h
- IC50 (CYP 1A2): > 50000 nM

Structure (SMILES): O=C(O)COC[C@H]1CC[C@H](COC(=O)N(c2ccccc2)c2cccc(F)c2)CC1 [5g, 2-(((1r,4r)-4-(((3-Fluorophenyl)(phenyl)carbamoyloxy)methyl)cyclohexyl)methoxy)acetic Acid]
- AUC(0-inf) (Rat PK (iv and oral); plasma): 7900 ng·h/mL
- bioavailability (Rat PK (iv and oral); plasma): 39%
- Cmax (Rat PK (iv and oral); po 10 mg/kg (5m 10.5)): 3400 ng/mL
- Tmax (Rat PK (iv and oral); po 10 mg/kg (5m 10.5)): 0.3 h
- unbound Cmax plasma concentration (Rat PK (iv and oral)): 300 nM
- T1/2 (Rat PK (iv and oral); [2]): 3.4 h
- Clobs (Rat PK (iv and oral); [3]): 1.2 L h^–1 kg^–1
- fraction unbound (Plasma protein binding; read-out: free fraction): 0.01
- fraction unbound (Plasma protein binding; [4]): ~0.01
- inhibition of the MCT-induced increase in RV/(LV + S) (MCT-induced PAH): dose-dependent inhibition
- Ki (DP1): 1850 nM
- IC50 (CYP 2D6): > 50000 nM
- IC50 (CYP 2C19): > 50000 nM
- IC50 (CYP 2C9): > 50000 nM
- IC50 (CYP 3A4): > 50000 nM
- Ki (EP2): 570 nM
- IC50 (CYP 1A2): > 50000 nM

Structure (SMILES): CC#CCC(C)[C@H](O)/C=C/[C@@H]1[C@H]2C/C(=C/CCCC(=O)O)C[C@H]2C[C@H]1O (stereo partly drawn) [iloprost]
- Efficacy (% vs. Iloprost) [95% CI], primary human PASMC cAMP [1]: 100%
- EC50 ([1]; Homo sapiens, PASMC, n = 8, read-out: EC50 [95% CI], primary human PASMC cAMP): 2.9 nM
- EC50 (EP1): 47 nM
- EP1 % I.A (EP1): 48%
